In patent US4734280A, “Treatment or prevention of PAF Acether-induced maladies” (priority 1984, dated 1988):
Like-named read-outs stand apart in the source and are kept apart here.

Experiments:
Sprague-Dowley rats = assay: Cutaneous vascular hyperpermeability induced by PAF Acether in the rat; assay type: in vivo; conditions: 1 mg/kg IV; for PAF Acether induced wheal, Surface: PAF Acether 25 ng intradermal, 30 mn; for PAF Acether induced wheal, Surface / PAF Acether induced wheal, Coloration OD: p < 0.001; for PAF Acether induced wheal, Coloration OD: optical density at 620 nm; for PAF Acether induced wheal, Coloration % decrease / PAF Acether induced wheal, Surface % decrease: vs control
Method: Method: Intradermal injection of 25 ng of PAF Acether in the dorsal region of the rat with simultaneous IV injection of Evans blue dye (60 mg/kg/5 ml) induces vascular hyperpermeability and wheals formation. (for details see Basran GS, Page CP, Paul W and Morley J-Cromoglycate inhibits responses to platelet-activating factor (PAF Acether) in man: an alternative mode of action for DSCG in asthma-Eur. J. Pharma. (1983) 86 143-144).
These wheals were measured (surface in mm^2) at the inner side of the skin 30 mn after the injections and were taken off, put in 4 ml of formamide, incubated at 65° C. during 24 h in order to extract the dye and measure their coloration (optical density at 620 nm).
Groups of 6 Sprague-Dowley rats weighing 200 g were used and each rat received intradermal injections in two sites of the back. The experiment was performed in comparison with a reference compound, D 600 (methoxy verapamil), a calcium-blocker agent.
Treatments: Tested compounds were administered by IV route injected once simultaneously with the dye.

PAF-Acether receptor = target: T1, PAF-Acether receptor (Oryctolagus cuniculus, UniProt G1TEI7); assay: Competition with 3H-PAF Acether binding, rabbit membrane platelet preparation; conditions: read-out: reduction of 3H-PAF Acether binding
T1 construct: using a rabbit membrane platelet preparation; from tissue; host or cells: rabbit platelets (membrane preparation)
Source text: The competition of the alternative binding of either ^3 H-PAF Acether or one of the Ginkgolides was evidenced by radioactive determinations using a rabbit membrane platelet preparation. (100% control=^3 H-PAF Acether alone).

[1] = tested on: rabbit plasma-rich platelets (PRP); assay: Inhibition of PAF Acether-induced PA, rabbit PRP in vitro; assay type: cell-based; conditions: Oryctolagus cuniculus, Platelet, average of 10 assays, read-out: IC50 doses on PAF Acether-induced rabbit PA (PRP)
Method: (§1) The Inhibition of PAF Acether-induced PA has been studied on rabbit plasma-rich platelets (PRP). Two doses of PAF Acether were used (2.5 nM and 5 nM). The tested compound was added to the medium 3 minutes before PAF Acether and aggregation was followed by monitoring changes in electrical impedance (Whole-Blood aggregometer-chrono-Log); kadsurenone was simultaneously tested as reference compound and the IC50 molar doses of Ginkgolides A, B, C and M and of kadsurenone on PAF Acether-induced rabbit PA (PRP) have been calculated.
The results obtained are presented in the following table (average values for 10 assays for each dose) and FIG. 1: […]

Hartley guinea-pig = assay: PAF Acether-induced bronchoconstriction in the anesthetized guinea-pig; assay type: in vivo; conditions: 1 mg/kg IV; for % of bronchoconstriction: 5 minutes before PAF Acether 60 ng/kg IV, % of maximal bronchoconstriction, average of 10 animals; for % of inhibition (bronchoconstriction): vs solvent in the same batch
Method: Method: (For details, see B. B. VARGAFTIG, J. LEFORT, F. WAL, M. CHIGNARD and M. C. MEDEIROS-Non-steroidal anti-inflammatory drugs of combined with anti-histamine and anti-serotonin agents interfere with the bronchial and platelet effects of PAF Acether-Enr. J. Pharm. (1982) 82 121-130). Male Hartley guinea-pig (400-500 g) were anesthetized with urethane 2 g/kg Ip., tracheotomised and ventilated by mean of a respiratory pump: 70-80 strokes mn, stroke volume 5 ml, a pneumothorax was done to abolish spontaneous respiration. The right jugular vein was catherized and used for injections.
The initial resistance was kept constant at 10 cm H2 O pressure according to the method of Konzett and Rossler and the overflowed airway was measured with a bronchospasm transducer UGO BASILE connected to a UGO BASILE recorder "GEMINI". Bronchial sensitivity of the animal was checked with acetylcholine (10-40 ng kg^-1 IV) and after constant response was obtained, there were injected, IV, first the propylene glycol and, five minutes later, 60 ng/kg of PAF Acether, which gave the control bronchoconstriction expressed as % of maximal bronchoconstriction given by clamping off the trachea. 40 minutes later, the tested compounds were administered by IV injection and, 5 minutes later, 60 ng/kg of PAF Acether by the same route. This experimentation was conducted on three batches of each 10 animals: first batch for Ginkgolide A, second one for Ginkgolide B and last one for Ginkgolide C, all at the 1 mg/kg dose. The figures of the following table are the average values for the 10 animals of each batch.

[2] = tested on: guinea-pig lung parenchymal strip; assay: PAF Acether-induced contraction of superfused lung parenchymal strip; conditions: for inhibition at 30 µg/mL: Cavia porcellus, read-out: change of PAF Acether (3 ng)-induced contraction; for Contraction induced by PAF Acether (3 ng) (Arbitrary Units): preventive superfusion 30 μg/ml, average of 10 determinations
[3] = tested on: rabbit plasma-rich platelets (PRP); assay: Aggregation induced by other known aggregants (ADP, thrombine, calcium ionophore A 23187, collagen, adrenaline); assay type: cell-based; conditions: calcium ionophore A 23187, collagen and adrenaline
New-Zealand rabbits = assay: PAF Acether-induced shock in the rabbit; assay type: in vivo; conditions: for Extravasation (O.D.): 2 mg/kg IV perfusion, 30 mn, optical density at 590 nm, average of 10 animals; for Behaviour: behavioural modifications / Behaviour: deaths: 2 mg/kg IV, PAF Acether 2 and 4 nmol/kg, 10 animals per batch
Method: Treatment: Tested compounds (Gingkolides A, B and C) or vehicle were perfused in the ear vein in 45 ml NaCl 0.9% for 1 hour before PAF Acether injection. Vehicle consisted of 1.5 ml of propylene glycol completed to 45 ml by isotonic NaCl buffer; Ginkgolides were administered at the dose of 2 mg/kg IV; the figures reported in the following table are the average values of the 10 animals of each batch.

human platelets = assay: Ex vivo PAF Acether-induced PA in man after IV administration; conditions: IV 25 mg, PAF Acether 100 nM
Method: […] DMSO).
The same protocol described hereinabove for rabbit was used in man with only one dose of each Ginkgolide (IV 25 mg) and two blood takes (at 0.5 h and 1 h).

human PRP = assay: Inhibition of PAF Acether-induced PA, human PRP in vitro; assay type: cell-based; conditions: PAF Acether 100 nM, read-out: IC Doses (PAF Acether-induced PA, human PRP)
Method: as §1
The inhibition of PAF Acether-induced PA has been studied on human PRP. The same protocol was used as for rabbit hereinabove.

[4] = tested on: guinea-pig mesenteric artery; assay: Opto-electronic follow-up of PAF Acether-induced thrombus, guinea-pig mesenteric artery; assay type: in vivo
Source text: In this experimental study, 20 guinea-pigs were used. […] Briefly summarized, this method consists in the dissection over a distance of 2 to 3 mm of a branch of the mesenteric artery following gently extraction of a loop of small intestine. By transillumination, the image of this arterial segment is projected onto a set of 30 light-depending resistances (LDR) arranged in two columns of 15 elements each. An LDR element has the property to change its internal resistance as a function of a variation of light intensity. Each LDR is connected into its own Wheatstone bridge, and the changes in light intensity due to thrombus formation will be recorded as variations in electrical potentials and registered as such via a multiplexing device.
In the present investigation, several discriminating parameters are recorded: (a) the t1 interval or the lag period (this is the time interval between the beginning of the PAF Acether superfusion and the first signs of thrombus formation; (b) the td interval is the duration of the thrombotic phenomenon; (c) the O(t) curve indicates the number of LDR elements covered by the thrombus image; (d) the D(t) curve represents during each 30×1/9×10^-2 sec interval the greatest potential deviation on one of the LDR elements covered by the thrombus image; (e) the T(t) curve represents the summation of the potentials registered on the LDR elements during a time interval of 30×1/9×10^-2 sec the TTV(t) curve results from the integration of the T(t) values in function of time; (f) mD, mT, and mO correspond to the maximal values registered on, respectively, the D(t), T(t), and O(t) curves; (g) TTV is the maximal value of the TTV(t) curve, whereas TVM is the value of this curve up to the point where mT is reached.
In a first series of experiments (10 animals) the effect of local superfusion with PAF Acether (10^-4 M) is investigated.
In a second series of experiments (10 animals) the effects of Ginkgolide B and of kadsurenone have been compared preventively and curatively.

T1 sequence (G1TEI7 1-342): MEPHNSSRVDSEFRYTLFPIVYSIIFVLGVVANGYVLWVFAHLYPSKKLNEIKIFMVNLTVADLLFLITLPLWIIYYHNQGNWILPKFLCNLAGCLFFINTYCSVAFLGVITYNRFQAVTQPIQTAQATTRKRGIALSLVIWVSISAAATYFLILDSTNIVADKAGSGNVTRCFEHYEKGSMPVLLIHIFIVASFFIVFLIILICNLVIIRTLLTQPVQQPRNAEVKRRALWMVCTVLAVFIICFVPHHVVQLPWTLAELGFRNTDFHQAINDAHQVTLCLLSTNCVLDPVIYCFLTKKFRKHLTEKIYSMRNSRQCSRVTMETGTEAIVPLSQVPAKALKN

SMILES | PAF Acether induced wheal, Surface (Sprague-Dowley rats) [mm^2] | PAF Acether induced wheal, Coloration OD (Sprague-Dowley rats) [OD] | PAF Acether induced wheal, Coloration % decrease (Sprague-Dowley rats) [%] | PAF Acether induced wheal, Surface % decrease (Sprague-Dowley rats) [%] | inhibition at 10 µM (PAF-Acether receptor) [%] | IC50 ([1]; PAF Acether 2.5 nM) [µM] | IC50 ([1]; PAF Acether 5 nM) [µM] | % of bronchoconstriction (Hartley guinea-pig) [%] | % of inhibition (bronchoconstriction) (Hartley guinea-pig) [%] | Contraction induced by PAF Acether (3 ng) (Arbitrary Units) [2] [Arbitrary Units] | effect against aggregation induced by other known aggregants [3] | Extravasation (O.D.) (New-Zealand rabbits; PAF Acether 2 nmol/kg) | Extravasation (O.D.) (New-Zealand rabbits; PAF Acether 4 nmol/kg) | Behaviour: behavioural modifications (New-Zealand rabbits) | Behaviour: deaths (New-Zealand rabbits) | % of aggregation with respect to control (human platelets; blood take at 0.5 h) [%] | % of aggregation with respect to control (human platelets; blood take at 1.0 h) [%] | IC50 (human PRP) [µM] | also measured
COc1ccc(CCN(C)CCCC(C#N)(c2cc(OC)c(OC)c(OC)c2)C(C)C)cc1OC (stereo not shown) [D 600, methoxy verapamil, reference compound] | 62.6 | 0.664 | -42 | -39 | – | – | – | – | – | – | – | – | – | – | – | – | – | – | deaths/6 (Sprague-Dowley rats; group of 6 rats): two
C[C@@H]1C(=O)O[C@H]2C[C@@]34[C@H]5C[C@@H](C(C)(C)C)[C@]36[C@@H](OC(=O)[C@@H]6O)O[C@@]4(C(=O)O5)[C@]21O [Ginkgolide A] | 64.3 | 0.631 | -45 | -37 | 67 | 8.32 | 13.2 | 13.3 | 84.1 | 10.30 ± 2.33 | totally ineffective | 0.903 | 0.881 | No behavioural | No death | 0 | 5.7 | 90 | inhibition at 30 µg/mL ([2]; 30 μg/ml, p < 0.001): 72.8%
CC1C(=O)OC2C(O)C34C5OC(=O)C3(OC3OC(=O)C(O)C34C(C(C)(C)C)C5O)C12O (stereo not shown) [Ginkgolide C] | 68.1 | 0.701 | -39 | -34 | 83 | 15.3 | 25.4 | 17.0 | 78.6 | 11.08 ± 2.42 | totally ineffective | 0.910 | 0.875 | No behavioural | No death | 0 | 10.6 | 150 | inhibition at 30 µg/mL [2]: 70.8%
CC1C(=O)OC2C1C13OC4OC(=O)C(O)C45C(C(C)(C)C)C(O)C(OC1=O)C35C2O (stereo not shown) [Ginkgolide M] | – | – | – | – | – | 122 | 20.2 | – | – | – | totally ineffective | – | – | – | – | – | – | – | inhibition at 100 µM (PAF-Acether receptor): 79%
C=CCC1=C[C@@]2(OC)C(=CC1=O)O[C@H](c1ccc(OC)c(OC)c1)[C@H]2C [Kadsurenone, kadsurenone, reference compound] | – | – | – | – | – | 9.94 | 14 | – | – | – | – | – | – | – | – | – | – | 130 | thrombus formation when superfused with PAF Acether (preventive) ([4]; PAF Acether superfusion): no thrombus appeared; time for disappearance of pre-formed thrombus (curative) ([4]; PAF Acether-induced thrombus): about 4.30 minutes
